Measured values taken from US12138262B2, “Process of manufacture of a compound for inhibiting the activity of SHP2, as well as products resulting from acid addition” (Novartis AG, priority 2018, dated 2024).

What was measured:
Format in all cases: physicochemical
[1] = Excipient compatibility: degradation in experimental excipient mixtures at 50° C./75% RH
[2] = Dynamic vapor sorption / water content versus relative humidity; conditions: 10% RH to 50% RH at room temperature
Experimental: DVS/Dynamic Vapor Sorption) data were obtained as follows: Dynamic vapor sorption was performed using a SMS Advantage system. Approximately 10 mg of sample was subjected to varying humidities between 0% RH and 95% RH at 25° C. Evaluation was performed using the system software.

[3] = Form conversion in aqueous organic solvent mixtures; conditions: aqueous organic solvent mixtures with very small quantities of water (1-2%)

Structure (SMILES): C[C@@H]1OCC2(CCN(c3cnc(Sc4ccnc(N)c4Cl)c(N)n3)CC2)[C@@H]1N.C[C@@H]1OCC2(CCN(c3cnc(Sc4ccnc(N)c4Cl)c(N)n3)CC2)[C@@H]1N.O.O=C(O)CCC(=O)O.O=C(O)CCC(=O)O [Example 6, (3S,4S)-8-(6-amino-5-((2-amino-3-chloropyridin-4-yl)thio)pyrazin-2-yl)-3-methyl-2-oxa-8-azaspiro[4.5]decan-4-amine, succinate (1:1) hemihydrate, modification (form) HA]
- degradation levels in excipient mixtures ([1]; all four experimental excipient mixtures (Mixtures 1-4)): acceptable degradation levels
- water content over 10% RH to 50% RH [2]: constant water content

Structure (SMILES): C[C@@H]1OCC2(CCN(c3cnc(Sc4ccnc(N)c4Cl)c(N)n3)CC2)[C@@H]1N.O=C(O)CCCCC(=O)O [Example 10, (3S,4S)-8-(6-amino-5-((2-amino-3-chloropyridin-4-yl)thio)pyrazin-2-yl)-3-methyl-2-oxa-8-azaspiro[4.5]decan-4-amine adipate (1:1), Modification A]
- degradation with mixture containing mannitol, Ac-di-Sol and microcrystalline cellulose ([1]; mixture containing mannitol, Ac-di-Sol and microcrystalline cellulose (Mixture 4)): strong degradation

Structure (SMILES): C[C@@H]1OCC2(CCN(c3cnc(Sc4ccnc(N)c4Cl)c(N)n3)CC2)[C@@H]1N.O=C(O)CCC(=O)O [Example 11, (3S,4S)-8-(6-amino-5-((2-amino-3-chloropyridin-4-yl)thio)pyrazin-2-yl)-3-methyl-2-oxa-8-azaspiro[4.5]decan-4-amine, succinate (1:1), anhydrous form, Modification A]
- conversion of solid form [3]: rapidly converted into Modification HA

Structure (SMILES): C[C@@H]1OCC2(CCN(c3cnc(Sc4ccnc(N)c4Cl)c(N)n3)CC2)[C@@H]1N [Example 13, (3S,4S)-8-(6-amino-5-((2-amino-3-chloropyridin-4-yl)thio)pyrazin-2-yl)-3-methyl-2-oxa-8-azaspiro[4.5]decan-4-amine free base Modification A]
- degradation with excipient mixture containing HPMC ([1]; mixture containing HPMC (Mixture 2)): strong degradation
